Test results published in patent US11312704B2, “Inhibitors of cysteine proteases and methods of use thereof” (priority 2020, dated 2022).

test system: HCoV 229E; experiment: HCoV 229E cytopathic effect (CPE) assay; type: cell-based, Human Coronavirus (HCov) 229E; settings: CellTiter Glo
Experimental: The antiviral activity of compounds was calculated based on the protection of the virus-induced CPE at each concentration normalized by the virus control.
Reagents and instruments used in this assay include luminescent cell viability assay kit CellTiter Glo (Promega) and Microplate Reader Synergy2 (BioTek).
Cytopathic effect (CPE) was measured by CellTiter Glo following the manufacturer's manual. The antiviral activity of compounds was calculated based on the protection of the virus-induced CPE at each concentration normalized by the virus control.

| Structure (SMILES) | EC50 [nM] |
| --- | --- |
| COc1cccc2[nH]c(C(=O)N[C@@H](CC(C)C)C(=O)N[C@@H](C[C@@H]3CCNC3=O)C(O)C#N)cc12 (single isomer, unassigned) [134 (Isomer 1)] | < 2000 |
| COc1cccc2[nH]c(C(=O)N[C@@H](CC(C)C)C(=O)N[C@@H](C[C@@H]3CCNC3=O)C(C#N)NC(C)(C)C)cc12 (single isomer, unassigned) [323 (Isomer 1)] | < 2000 |
| COc1cccc2[nH]c(C(=O)N[C@@H](CC(C)C)C(=O)N[C@@H](C[C@@H]3CCNC3=O)C(C#N)N3CCCC3)cc12 (single isomer, unassigned) [331 (Isomer 1)] | < 2000 |
| COc1cccc2[nH]c(C(=O)N3C[C@H](c4ccccc4)C[C@H]3C(=O)N[C@@H](C[C@@H]3CCNC3=O)C(O)C#N)cc12 (single isomer, unassigned) [345 (Isomer 2)] | < 2000 |
| COc1cccc2[nH]c(C(=O)N3CC(C45CC(C4)C5)C[C@H]3C(=O)N[C@H](C#N)C[C@@H]3CCNC3=O)cc12 (single isomer, unassigned) [385 (Isomer 1)] | < 2000 |
| COc1cccc2[nH]c(C(=O)N3CC4(CCCCC4)CC3C(=O)N[C@H](C#N)C[C@@H]3CCNC3=O)cc12 (single isomer, unassigned) [389A (Isomer 1)] | < 2000 |
| COc1cccc2[nH]c(C(=O)N[C@@H](CC(C)C)C(=O)N[C@@H](C[C@@H]3CCNC3=O)C(C#N)NCc3ccccc3)cc12 (single isomer, unassigned) [507 (Isomer 1.1)] | < 2000 |
| COc1cccc2[nH]c(C(=O)N3CC4(CCCCC4)CC3C(=O)N[C@H](C#N)C[C@@H]3CCCNC3=O)cc12 (single isomer, unassigned) [681 (Isomer 1)] | < 2000 |
| COc1cccc2[nH]c(C(=O)N[C@@H](CC(C)C)C(=O)N[C@@H](C[C@@H]3CCNC3=O)C(O)C#N)cc12 (single isomer, unassigned; isomer 2) [135 (Isomer 2)] | < 2000 |
| COc1cccc2[nH]c(C(=O)N[C@@H](CC(C)C)C(=O)N[C@H](C#N)C[C@@H]3CCNC3=O)cc12 [Compound 101, N-[(1S)-1-[[(1S)-1-cyano-2-[(3S)-2-oxopyrrolidin-3-yl]ethyl]carbamoyl]-3-methyl-butyl]-4-methoxy-1H-indole-2-carboxamide] | < 2000 |
| CC(C)C[C@H](NC(=O)c1nc2ccccc2[nH]1)C(=O)N[C@H](C#N)C[C@@H]1CCNC1=O [Compound 103, N-[(1S)-1-[[(1S)-1-cyano-2-[(3S)-2-oxopyrrolidin-3-yl]ethyl]carbamoyl]-3-methyl-butyl]-1H-benzimidazole-2-carboxamide] | < 2000 |
| CC(C)C[C@H](NC(=O)c1nc2cccc(Cl)c2[nH]1)C(=O)N[C@H](C#N)C[C@@H]1CCNC1=O [Compound 133] | < 2000 |
| COc1cccc2[nH]c(C(=O)NC(CC(C)C)C(=O)NC(CC3CCNC3=O)C(O)C#N)cc12 [Compound 134, N-[(1S)-1-[[(1S)-2-cyano-2-hydroxy-1-[[(3S)-2-oxopyrrolidin-3-yl]methyl]ethyl]carbamoyl]-3-methyl-butyl]-4-methoxy-1H-indole-2-carboxamide] | < 2000 |
| COc1cccc2[nH]c(C(=O)N3C[C@H](c4ccccc4)C[C@H]3C(=O)N[C@H](C#N)C[C@@H]3CCNC3=O)cc12 [Compound 171] | < 2000 |
| COc1cccc2[nH]c(C(=O)N[C@@H](CC3CCCCC3)C(=O)N[C@H](C#N)C[C@@H]3CCNC3=O)cc12 [Compound 185, N-[(1S)-2-[[(1S)-1-cyano-2-[(3S)-2-oxopyrrolidin-3-yl]ethyl]amino]-1-(cyclohexylmethyl)-2-oxo-ethyl]-4-methoxy-1H-indole-2-carboxamide] | < 2000 |
| COc1cccc2[nH]c(C(=O)N3C[C@H]4C([C@H]3C(=O)N[C@H](C#N)C[C@@H]3CCNC3=O)C4(C)C)cc12 (stereo partly drawn) [Compound 197, (2S,5S)—N-[(1S)-1-cyano-2-[(3S)-2-oxopyrrolidin-3-yl]ethyl]-3-(4-methoxy-1H-indole-2-carbonyl)-6,6-dimethyl-3-azabicyclo[3.1.0]hexane-2-carboxamide] | < 2000 |
| COc1cccc2[nH]c(C(=O)N[C@@H](CC3CC3)C(=O)N[C@H](C#N)C[C@@H]3CCNC3=O)cc12 [Compound 205, N—((S)-1-(((S)-1-cyano-2-((S)-2-oxopyrrolidin-3-yl)ethyl)amino)-3-cyclopropyl-1-oxopropan-2-yl)-4-methoxy-1H-indole-2-carboxamide] | < 2000 |
| COc1cccc2[nH]c(C(=O)N[C@@H](CC(C)C)C(=O)N[C@@H](C[C@@H]3CCNC3=O)C(C#N)N[C@@H](C)c3ccccc3)cc12 (stereo partly drawn) [Compound 329] | < 2000 |
| COc1cccc2[nH]c(C(=O)N3C[C@H](c4ccccc4)CC3C(=O)N[C@H](C=O)C[C@@H]3CCNC3=O)cc12 (stereo partly drawn) [Compound 344A] | < 2000 |
| COc1cccc2[nH]c(C(=O)N[C@@H](CC(C)C)C(=O)N[C@@H](C[C@@H]3CCNC3=O)C(N)C#N)cc12 (stereo partly drawn) [Compound 344C, N-[(1S)-1-[[(1S)-2-amino-2-cyano-1-[[(3S)-2-oxopyrrolidin-3-yl]methyl]ethyl]carbamoyl]-3-methyl-butyl]-4-methoxy-1H-indole-2-carboxamide] | < 2000 |
| COc1cccc2[nH]c(C(=O)N3C[C@H](c4ccccc4)C[C@H]3C(=O)N[C@@H](C[C@@H]3CCNC3=O)C(O)C#N)cc12 (stereo partly drawn) [Compound 345] | < 2000 |

| Structure (SMILES) | EC50 [nM] |
| --- | --- |
| CC(C)C[C@H](NC(=O)c1cc2c(OC(F)(F)F)cccc2[nH]1)C(=O)N[C@H](C#N)C[C@@H]1CCNC1=O [Compound 361] | < 2000 |
| CC(C)C[C@H](NC(=O)c1nc2c(OC(F)(F)F)cccc2[nH]1)C(=O)N[C@H](C#N)C[C@@H]1CCNC1=O [Compound 363] | < 2000 |
| N#C[C@H](C[C@@H]1CCNC1=O)NC(=O)[C@H](CC1CC1)NC(=O)c1cc2c(C3CC3)cccc2[nH]1 [Compound 375A] | < 2000 |
| CCOc1cccc2[nH]c(C(=O)N[C@@H](CC(C)C)C(=O)N[C@H](C#N)C[C@@H]3CCNC3=O)cc12 [Compound 377] | < 2000 |
| COc1cccc2[nH]c(C(=O)N3C[C@@H]4CCC[C@@H]4[C@H]3C(=O)N[C@H](C#N)C[C@@H]3CCNC3=O)cc12 [Compound 393] | < 2000 |
| COc1cccc2[nH]c(C(=O)N3CC4(CC4)C[C@H]3C(=O)N[C@H](C#N)C[C@@H]3CCNC3=O)cc12 [Compound 397] | < 2000 |
| COc1cccc2[nH]c(C(=O)N3CC4(CCCC4)C[C@H]3C(=O)N[C@H](C#N)C[C@@H]3CCNC3=O)cc12 [Compound 401, (S)—N—((S)-1-cyano-2-((S)-2-oxopyrrolidin-3-yl)ethyl)-2-(4-methoxy-1H-indole-2-carbonyl)-2-azaspiro[4.4]nonane-3-carboxamide] | < 2000 |
| COc1cccc2[nH]c(C(=O)N[C@@H](CC(C)(C)C)C(=O)N[C@H](C#N)C[C@@H]3CCNC3=O)cc12 [Compound 405, N-[(1S)-1-[[(1S)-1-cyano-2-[(3S)-2-oxopyrrolidin-3-yl]ethyl]carbamoyl]-3,3-dimethyl-butyl]-4-methoxy-1H-indole-2-carboxamide] | < 2000 |
| COc1cccc2[nH]c(C(=O)N[C@@H](CC3CC3)C(=O)N[C@H](C#N)C[C@@H]3CCCNC3=O)cc12 [Compound 491, N-[(1S)-2-[[(1S)-1-cyano-2-[(3S)-2-oxo-3-piperidyl]ethyl]amino]-1-(cyclopropylmethyl)-2-oxo-ethyl]-4-methoxy-1H-indole-2-carboxamide] | < 2000 |
| CC(C)C[C@H](NC(=O)c1cc2c(OC(F)F)cccc2[nH]1)C(=O)N[C@H](C#N)C[C@@H]1CCNC1=O [Compound 509] | < 2000 |
| CCNC(C#N)[C@H](C[C@@H]1CCNC1=O)NC(=O)[C@H](CC(C)C)NC(=O)c1cc2c(OC)cccc2[nH]1 (stereo partly drawn) [Compound 511, N-[(1S)-1-[[(1S)-2-cyano-2-(ethylamino)-1-[[(3S)-2-oxopyrrolidin-3-yl]methyl]ethyl]carbamoyl]-3-methyl-butyl]-4-methoxy-1H-indole-2-carboxamide] | < 2000 |
| N#C[C@H](C[C@@H]1CCNC1=O)NC(=O)[C@H](CC1CC1)NC(=O)c1cc2cc(Cl)ccc2[nH]1 [Compound 519] | < 2000 |
| N#C[C@H](C[C@@H]1CCNC1=O)NC(=O)[C@H](CC1CC1)NC(=O)c1cc2cccc(Cl)c2[nH]1 [Compound 531, 7-chloro-N-[(1S)-2-[[(1S)-1-cyano-2-[(3S)-2-oxopyrrolidin-3-yl]ethyl]amino]-1-(cyclopropylmethyl)-2-oxo-ethyl]-1H-indole-2-carboxamide] | < 2000 |
| COc1cccc2[nH]c(C(=O)N[C@@H](CC3CCC3)C(=O)N[C@H](C#N)C[C@@H]3CCNC3=O)cc12 [Compound 577] | < 2000 |
| CC(C)C[C@H](NC(=O)/C=C/c1ccc(Cl)cc1F)C(=O)N[C@H](C#N)C[C@@H]1CCNC1=O [Compound 598] | < 2000 |
| N#C[C@H](C[C@@H]1CCCNC1=O)NC(=O)[C@H](CC1CC1)NC(=O)c1cc2ccc(Cl)cc2[nH]1 [Compound 635, 6-Chloro-N-[(1S)-2-[[(1S)-1-cyano-2-[(3S)-2-oxo-3-piperidyl]ethyl]amino]-1-(cyclopropylmethyl)-2-oxo-ethyl]-1H-indole-2-carboxamide] | < 2000 |
| N#C[C@H](C[C@@H]1CCCNC1=O)NC(=O)[C@H](CC1CC1)NC(=O)c1nc2c(Cl)ccc(Cl)c2[nH]1 [Compound 637, 4,7-dichloro-N-[(1S)-2-[[(1S)-1-cyano-2-[(3S)-2-oxo-3-piperidyl]ethyl]amino]-1-(cyclopropylmethyl)-2-oxo-ethyl]-1H-benzimidazole-2-carboxamide] | < 2000 |
| COc1cccc2[nH]c(C(=O)N[C@@H](CC(C)(C)C)C(=O)N[C@H](C#N)C[C@@H]3CCCNC3=O)cc12 [Compound 643, N-[(1S)-1-[[(1S)-1-cyano-2-[(3S)-2-oxo-3-piperidyl]ethyl]carbamoyl]-3,3-dimethyl-butyl]-4-methoxy-1H-indole-2-carboxamide] | < 2000 |
| COc1cccc2[nH]c(C(=O)N[C@@H](CC(C)C)C(=O)N[C@@H](C[C@@H]3CCNC3=O)C(C#N)NCC(=O)O)cc12 (stereo partly drawn) [Compound 653] | < 2000 |
| N#C[C@H](C[C@@H]1CCNC1=O)NC(=O)[C@H](CC1CC1)NC(=O)c1cc2c([nH]1)CCCC2 [Compound 711] | < 2000 |
| N#C[C@H](C[C@@H]1CCCNC1=O)NC(=O)[C@H](CC1CC1)NC(=O)c1cc2c(Cl)nccc2[nH]1 [Compound 715] | < 2000 |
